Non-standard residues stand in square brackets, D forms with d. Residues, ends and D or L forms follow the SMILES beside them. ξ: configuration not given here. *: point of attachment. Asu = N[C@@H](CCCCCC(=O)O)C(=O)O; Cha = N[C@@H](CC1CCCCC1)C(=O)O; Ile(3ξ) = CCC(C)[C@H](N)C(=O)O; dCha = N[C@H](CC1CCCCC1)C(=O)O; Aic = NC1(C(=O)O)Cc2ccccc2C1; Ac8c = NC1(C(=O)O)CCCCCCC1; Ac7c = NC1(C(=O)O)CCCCCC1; Pip = O=C(O)[C@@H]1CCCCN1; dPip = O=C(O)[C@H]1CCCCN1; Ac6c = NC1(C(=O)O)CCCCC1; Ac5c = NC1(C(=O)O)CCCC1; Aib = CC(C)(N)C(=O)O; NHOH = ON*
Assays:
[1] = tested on: histone deacetylase partially purified from B16/BL6 cells; assay: Inhibitory activity against histone deacetylase enzyme; format: biochemical, mouse; details: crude enzyme from B16/BL6 cells, [3H]acetylated histone H4 peptide substrate, 37 for 3 hours; read-out: 50% inhibitory concentration
Procedure: The preparation of histone deacetylase was performed essentially according to the method of Yoshida et al. (J. Biol. Chem., 265, 17174-17179, 1990). The enzyme to be used was partially purified from B16/BL6 cells. The cells were suspended in HDA buffer (15 mM potassium phosphate, 5% glycerol, 0.2 mM EDTA, 1 mM 2-mercaptoethanol, pH 7.5), homogenized and centrifuged (2500× g, 10 min) to collect the nuclei, which were then homogenized in the same buffer containing 1 M (NH4)2SO4. After ultrasonic disruption and centrifugation, the concentration of (NH4)2SO4 in the collected supernatant was increased to 3.5 M to precipitate histone deacetylase. This precipitate was re-dissolved in HDA buffer, subjected to gel filtration to replace the solvent by HDA buffer, and used as a crude histone deacetylase enzyme solution.
As a substrate, a synthetic substrate peptide, [^3H]acetylated histone H4 peptide was used. This [^3H]acetylated histone H4 peptide was obtained by synthesizing the N-terminal peptide of histone H4; […] (SEQ ID NO: 1: the C-terminal being cysteine) and then radioactively acetylating with ^3H-acetic anhydride.
An assay was performed by incubating the synthetic substrate solution and the enzyme solution at 37 for 3 hours in the presence of a compound to be tested (reaction volume, 100 μl). The reaction was stopped by adding 25 μl of 1 M HCl and 0.2 M acetic acid, and [^3H]acetate cleaved by the enzyme reaction was extracted with ethyl acetate for radioactivity measurement. For a control group, the same procedure was repeated without addition of any test compound to the reaction system. Each test compound was evaluated for a concentration required to cause 50% inhibition of the histone deacetylase enzyme activity in the control group (50% inhibitory concentration).

[2] = tested on: MHC class-I molecule expression on B16/BL6 cells; assay: MHC class-I molecule expression-promoting activity; format: cell-based, mouse; details: concentration giving twice-promoted MHC class-I expression relative to untreated control, 72 hours culture with compound
Procedure: The cyclic tetrapeptide derivatives of the present invention were investigated for their MHC class-I molecule expression-promoting actions in the following test.
The cancer cells used were mouse melanoma, B16/BL6 cells, provided by the National Cancer Institute, U.S.A. Said cells were cultured in MEM media supplemented with 10% FBS at 37° C., 5% CO2 in an humidified incubator.
A compound to be tested was preliminarily dissolved in dimethylsulfoxide (DMSO) and adjusted to a concentration of 100 mM or 10 mM (stock solution). […] Trichostatin A was used as a positive control compound for MHC class-I molecule expression-promoting action due to histone deacetylase enzyme-inhibiting activity. DMSO used as a solvent for the stock solution of a test compound would inevitably be introduced into the medium in the test; however, it had been separately confirmed not to affect the test results in amounts within the range used in the test.
Said B16/BL6 cells were inoculated on a 96-well microplate at a cell density of 5000 cells per well, each well containing 200 μAl of said medium. After culturing for 24 hours, 10 μl of a sample containing a given amount of the stock solution of a test compound which had been diluted in the medium was added and cultured for additional 72 hours. Thereafter, each well was washed once with PBS (phosphate buffered saline) and floating cells and the medium were removed. Then, the well was treated with 0.1% glutaraldehyde solution for 3 minutes to fix the cells.
The amount of MHC class-I molecule expressed on the surface of the fixed cells was measured as follows. Anti-H-2K^bD^bD^d antibody, which is an antibody against mouse MHC class-I molecule (commercially available from Meiji Milk Co., Ltd), was used as a primary antibody, biotinylated anti-mouse IgG+M (commercially available from Chemicon) was used as a secondary antibody, and streptavidin-galactosidase conjugate (commercially available from BRL) was reacted as a labeling enzyme. The amount of the thus labeled enzyme-galactosidase was measured in a microplate reader by recording the fluorescent intensity (excitation: 365 nm, fluorescence: 450 nm) resulting from the enzyme reaction product using 4-methylumbelliferyl-D-galactoside (commercially available from Nacalai Tesque) as a substrate. A fluorescence intensity measured for another well to which no test compound was added and which was treated in a similar manner without adding said primary antibody was used as a background level. The value obtained by subtracting said background level from the actually measured value (an apparent value including the background level) was defined as a true measurement reflecting the amount of expressed MHC class-I molecule.
A group without the addition of any test compound was used as a control group and the measurement of MHC class-I molecule expressed in said group was used as a standard value. The amount of MHC class-I molecule expressed at an addition concentration of each test compound was shown as a relative amount based on said standard value set to one (1). The strength of each test compound activity was compared at a concentration which provides twice-promoted expression (C×2).

Row | Structure (SMILES) | IC50 [1] | Twice promoting concentration Cx2 [2]
1 | O=C(CCCCC[C@@H]1NC(=O)[C@H]2CCCN2C(=O)[C@H](Cc2ccccc2)NC(=O)C2(CCCCCC2)NC1=O)NO [CHAP71, cyclo(-L-Asu(NHOH)-Acc7-L-Phe-D-Pro-)] (cyclo([Asu](NHOH)[Ac7c]F[dP])) | 2.14 nM | 2.76 nM
2 | O=C(CCCCC[C@@H]1NC(=O)[C@H]2CCCN2C(=O)[C@H](Cc2ccccc2)NC(=O)C2(CCCC2)NC1=O)NO [CHAP54, cyclo(-L-Asu(NHOH)-Acc5-L-Phe-D-Pro-)] (cyclo([Ac5c]F[dP][Asu](NHOH))) | 3.02 nM | 5.67 nM
3 | O=C(CCCCC[C@@H]1NC(=O)[C@H]2CCCN2C(=O)[C@H](Cc2ccccc2)NC(=O)C2(CCCCC2)NC1=O)NO [CHAP55, cyclo(-L-Asu(N-HOH)-Acc6-L-Phe-D-Pro-)] (cyclo([Ac6c]F[dP][Asu](NHOH))) | 2.19 nM | 5.38 nM
4 | CC1(C)NC(=O)[C@H](CCCCCC(=O)NO)NC(=O)[C@H]2CCCN2C(=O)[C@H](Cc2ccccc2)NC1=O [CHAP15, cyclo(-L-Asu(NHOH)-Aib-L-Phe-D-Pro-), reference compound] (cyclo([Aib]F[dP][Asu](NHOH))) | 5.17 nM | 33.2 nM
5 | CC[C@H](C)[C@@H]1NC(=O)[C@@H](CC2CCCCC2)NC(=O)[C@H](CCCCCC(=O)NO)NC(=O)[C@H]2CCCCN2C1=O [CHAP86, cyclo(-L-Asu(NHOH)-D-Cha-L-Ile-D-Pip-)] (cyclo([Asu](NHOH)[dCha]I[dPip])) | 3.14 nM | 3.29 nM
6 | CCC(C)[C@@H]1NC(=O)[C@@H](CC2CCCCC2)NC(=O)[C@H](CCCCCC(=O)NO)NC(=O)[C@@H]2CCCCN2C1=O (stereo partly drawn) [CHAP87, cyclo(-L-Asu(NHOH)-D-Cha-L-Ile-L-Pip-)] (cyclo([Asu](NHOH)[dCha][Ile(3ξ)][Pip])) | 1.98 nM | 5.39 nM
7 | O=C(CCCCC[C@@H]1NC(=O)[C@@H]2CCCCN2C(=O)[C@H](CC2CCCCC2)NC(=O)[C@@H](CC2CCCCC2)NC1=O)NO [CHAP78, cyclo(-L-Asu(NHOH)-D-Cha-L-Cha-L-Pip-)] (cyclo([Asu](NHOH)[dCha][Cha][Pip])) | 3.88 nM | 2.35 nM
8 | O=C(CCCCC[C@@H]1NC(=O)[C@H]2CCCCN2C(=O)[C@H](CC2CCCCC2)NC(=O)[C@@H](CC2CCCCC2)NC1=O)NO [CHAP79, cyclo(-L-Asu(NHOH)-D-Cha-L-Cha-D-Pip-)] (cyclo([Asu](NHOH)[dCha][Cha][dPip])) | 3.9 nM | 2.79 nM
9 | O=C(CCCCC[C@@H]1NC(=O)[C@H]2CCCCN2C(=O)[C@H](Cc2ccccc2)NC(=O)C2(CCCCCCC2)NC1=O)NO [CHAP90, cyclo(-L-Asu(NHOH)-Acc8-L-Phe-D-Pip-)] (cyclo([Asu](NHOH)[Ac8c]F[dPip])) | 2.75 nM | 3.96 nM
10 | O=C(CCCCC[C@@H]1NC(=O)[C@H]2CCCN2C(=O)[C@H](Cc2ccccc2)NC(=O)C2(CCCCCCC2)NC1=O)NO [CHAP76, cyclo(-L-Asu(NHOH)-Acc8-L-Phe-D-Pro-)] (cyclo([Asu](NHOH)[Ac8c]F[dP])) | 3.99 nM | 1.88 nM
11 | CC(C)C[C@@H]1NC(=O)[C@@H](CC2CCCCC2)NC(=O)[C@H](CCCCCC(=O)NO)NC(=O)[C@@H]2CCCCN2C1=O [CHAP84, cyclo(-L-Asu(NHOH)-D-Cha-L-Leu-L-Pip-)] (cyclo([Asu](NHOH)[dCha]L[Pip])) | 2.22 nM | 5.65 nM

The remaining compounds from weak to strong by IC50 [1], led by results:

Row | IC50 [1] | Structure (SMILES) | Twice promoting concentration Cx2 [2]
12 | 1.96 nM | CC(C)C[C@@H]1NC(=O)[C@@H](CC2CCCCC2)NC(=O)[C@H](CCCCCC(=O)NO)NC(=O)[C@H]2CCCCN2C1=O [CHAP85, cyclo(-L-Asu(NHOH)-D-Cha-L-Leu-D-Pip-)] (cyclo([Asu](NHOH)[dCha]L[dPip])) | 2.26 nM
13 | 1.95 nM | O=C(CCCCC[C@@H]1NC(=O)[C@H]2CCCN2C(=O)[C@H](Cc2ccccc2)NC(=O)C2(CCc3ccccc32)NC1=O)NO (single isomer, unassigned) [CHAP83, cyclo(-L-Asu(NHOH)-1Ain(s)-L-Phe-D-Pro-)] | 2.29 nM
14 | 1.2 nM | O=C(CCCCC[C@@H]1NC(=O)[C@H]2CCCCN2C(=O)[C@H](Cc2ccccc2)NC(=O)C2(Cc3ccccc3C2)NC1=O)NO [CHAP91, cyclo(-L-Asu(NHOH)-2Ain-L-Phe-D-Pip-)] (cyclo([Aic]F[dPip][Asu](NHOH))) | 2.48 nM
15 | 1.12 nM | O=C(CCCCC[C@@H]1NC(=O)[C@H]2CCCN2C(=O)[C@H](Cc2ccccc2)NC(=O)C2(CCc3ccccc32)NC1=O)NO (single isomer, unassigned) [CHAP82, cyclo(-L-Asu(NHOH)-1Ain(f)-L-Phe-D-Pro-)] | 2.69 nM
16 | 0.98 nM | O=C(CCCCC[C@@H]1NC(=O)[C@H]2CCCN2C(=O)[C@H](Cc2ccccc2)NC(=O)C2(Cc3ccccc3C2)NC1=O)NO [CHAP81, cyclo(-L-Asu(NHOH)-2Ain-L-Phe-D-Pro-)] (cyclo([Aic]F[dP][Asu](NHOH))) | 1.29 nM
